Measurements as given in patent publication US8952024B2, “Herbicidal pyrimidone derivatives” (E I du Pont de Nemours and Company, priority 2009, dated 2015).

How the values were obtained:
Test in all cases: Test B pre-/postemergence plant response
Type in all cases: in vivo
[1] = test system: blackgrass (Alopecurus myosuroides); settings: for Blackgrass plant response rating (0 to 100 scale): postemergence, 0 is no effect, 100 is complete control; for Plant response rating, Blackgrass: Postemergence
Summary of the method: (§1)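 Visual ratings on a 0–100 scale (100 = complete control) were made versus untreated controls 13–15 days after treatment in a greenhouse. Compounds in surfactant-containing non-phytotoxic solvent were applied preemergence to seeds in loam–sand blend or postemergence to 1- to 4-leaf plants (2–18 cm).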

[2] = test system: Surinam grass (Brachiaria decumbens); settings: Postemergence
Summary of the method: as §1

[3] = test system: Italian ryegrass (Lolium multiflorum); settings: Postemergence
Summary of the method: as §1

[4] = test system: bermudagrass (Cynodon dactylon); settings: for Bermudagrass plant response rating (0 to 100 scale): postemergence, 0 is no effect, 100 is complete control; for Plant response rating, Bermudagrass: Postemergence
Summary of the method: as §1

[5] = test system: lambsquarters (Chenopodium album); settings: Postemergence
Summary of the method: as §1

[6] = test system: morningglory (Ipomoea coccinea); settings: Postemergence
Summary of the method: as §1

[7] = test system: downy bromegrass (Bromus tectorum); settings: for Bromegrass, Downy plant response rating (0 to 100 scale): postemergence, 0 is no effect, 100 is complete control; for Plant response rating, Bromegrass, Downy: Postemergence
Summary of the method: as §1

corn (Zea mays) = settings: Postemergence
Summary of the method: as §1

[8] = test system: green foxtail (Setaria viridis); settings: Postemergence
Summary of the method: as §1

[9] = test system: yellow nutsedge (Cyperus esculentus); settings: Postemergence
Summary of the method: as §1

[10] = test system: large crabgrass (Digitaria sanguinalis); settings: Postemergence
Summary of the method: as §1

[11] = test system: giant foxtail (Setaria faberii); settings: Postemergence
Summary of the method: as §1

[12] = test system: woolly cupgrass (Eriochloa villosa); settings: Postemergence
Summary of the method: as §1

[13] = 31 g ai/ha, 0 to 100 scale (0 no effect, 100 complete control)
[14] = 125 g ai/ha, scale 0 to 100 (0 no effect, 100 complete control)
[15] = 250 g ai/ha, scale 0 to 100 (0 no effect, 100 complete control), 13 to 15 days
[16] = 62 g ai/ha, scale 0 to 100 (0 no effect, 100 complete control)

## O=C1CCCC(O)=C1C(=O)c1cnc(-c2cccs2)n(C2CCCCC2)c1=O [Compound 189]
[1]; 62 g ai/ha, 13 to 15 days
  Blackgrass plant response rating (0 to 100 scale): 0
[1]; [13]
  Plant response rating, Blackgrass: 0
[1]; [14]
  Plant response rating, Blackgrass: 5
[1]; [15]
  Plant response rating, Blackgrass: 5
[2]; [13]
  Plant response rating, Surinam Grass: 65
[2]; [14]
  Plant response rating, Surinam Grass: 80
[2]; [15]
  Plant response rating, Surinam Grass: 85
[3]; [13]
  Plant response rating, Ryegrass, Italian: 0
[3]; [14]
  Plant response rating, Ryegrass, Italian: 5
[3]; [15]
  Plant response rating, Ryegrass, Italian: 5
[4]; 62 g ai/ha, 13 to 15 days
  Bermudagrass plant response rating (0 to 100 scale): 15
[4]; [13]
  Plant response rating, Bermudagrass: 10
[4]; [14]
  Plant response rating, Bermudagrass: 65
[4]; [15]
  Plant response rating, Bermudagrass: 70
[5]; [13]
  Plant response rating, Lambsquarters: 98
[5]; [14]
  Plant response rating, Lambsquarters: 100
[5]; [15]
  Plant response rating, Lambsquarters: 100
[6]; [13]
  Plant response rating, Morningglory: 100
[6]; [14]
  Plant response rating, Morningglory: 100
[6]; [15]
  Plant response rating, Morningglory: 100
[7]; 62 g ai/ha, 13 to 15 days
  Bromegrass, Downy plant response rating (0 to 100 scale): 5
[7]; [13]
  Plant response rating, Bromegrass, Downy: 0
[7]; [14]
  Plant response rating, Bromegrass, Downy: 5
[7]; [15]
  Plant response rating, Bromegrass, Downy: 10
Corn (Zea mays); [13]
  Plant response rating, Corn: 20
Corn (Zea mays); [14]
  Plant response rating, Corn: 35
Corn (Zea mays); [15]
  Plant response rating, Corn: 45
[8]; [13]
  Plant response rating, Foxtail, Green: 65
[8]; [14]
  Plant response rating, Foxtail, Green: 90
[8]; [15]
  Plant response rating, Foxtail, Green: 95
[9]; [13]
  Plant response rating, Nutsedge, Yellow: 20
[9]; [14]
  Plant response rating, Nutsedge, Yellow: 55
[9]; [15]
  Plant response rating, Nutsedge, Yellow: 65
[10]; [13]
  Plant response rating, Crabgrass, Large: 75
[10]; [14]
  Plant response rating, Crabgrass, Large: 95
[10]; [15]
  Plant response rating, Crabgrass, Large: 100
[11]; [13]
  Plant response rating, Foxtail, Giant: 75
[11]; [14]
  Plant response rating, Foxtail, Giant: 90
[11]; [15]
  Plant response rating, Foxtail, Giant: 98
[12]; [13]
  Plant response rating, Cupgrass, Woolly: 70
[12]; [14]
  Plant response rating, Cupgrass, Woolly: 75
[12]; [15]
  Plant response rating, Cupgrass, Woolly: 80

## CCCn1c(-c2cccc(Cl)c2)ncc(C(=O)C2=C(O)CCCC2=O)c1=O [Compound 190]
[1]; 62 g ai/ha, 13 to 15 days
  Blackgrass plant response rating (0 to 100 scale): 30
[1]; [13]
  Plant response rating, Blackgrass: 5
[1]; [14]
  Plant response rating, Blackgrass: 35
[1]; [15]
  Plant response rating, Blackgrass: 40
[2]; [13]
  Plant response rating, Surinam Grass: 60
[2]; [14]
  Plant response rating, Surinam Grass: 75
[2]; [15]
  Plant response rating, Surinam Grass: 90
[3]; [13]
  Plant response rating, Ryegrass, Italian: 0
[3]; [14]
  Plant response rating, Ryegrass, Italian: 20
[3]; [15]
  Plant response rating, Ryegrass, Italian: 30
[4]; 62 g ai/ha, 13 to 15 days
  Bermudagrass plant response rating (0 to 100 scale): 100
[4]; [13]
  Plant response rating, Bermudagrass: 98
[4]; [14]
  Plant response rating, Bermudagrass: 100
[4]; [15]
  Plant response rating, Bermudagrass: 100
[5]; [13]
  Plant response rating, Lambsquarters: 80
[5]; [14]
  Plant response rating, Lambsquarters: 100
[5]; [15]
  Plant response rating, Lambsquarters: 100
[6]; [13]
  Plant response rating, Morningglory: 40
[6]; [14]
  Plant response rating, Morningglory: 85
[6]; [15]
  Plant response rating, Morningglory: 100
[7]; 62 g ai/ha, 13 to 15 days
  Bromegrass, Downy plant response rating (0 to 100 scale): 30
[7]; [13]
  Plant response rating, Bromegrass, Downy: 5
[7]; [14]
  Plant response rating, Bromegrass, Downy: 35
[7]; [15]
  Plant response rating, Bromegrass, Downy: 35
Corn (Zea mays); [13]
  Plant response rating, Corn: 0
Corn (Zea mays); [14]
  Plant response rating, Corn: 40
Corn (Zea mays); [15]
  Plant response rating, Corn: 65
[8]; [13]
  Plant response rating, Foxtail, Green: 25
[8]; [14]
  Plant response rating, Foxtail, Green: 45
[8]; [15]
  Plant response rating, Foxtail, Green: 70
[9]; [13]
  Plant response rating, Nutsedge, Yellow: 35
[9]; [14]
  Plant response rating, Nutsedge, Yellow: 65
[9]; [15]
  Plant response rating, Nutsedge, Yellow: 75
[10]; [13]
  Plant response rating, Crabgrass, Large: 60
[10]; [14]
  Plant response rating, Crabgrass, Large: 80
[10]; [15]
  Plant response rating, Crabgrass, Large: 90
[11]; [13]
  Plant response rating, Foxtail, Giant: 70
[11]; [14]
  Plant response rating, Foxtail, Giant: 90
[11]; [15]
  Plant response rating, Foxtail, Giant: 95
[12]; [13]
  Plant response rating, Cupgrass, Woolly: 75
[12]; [14]
  Plant response rating, Cupgrass, Woolly: 80
[12]; [15]
  Plant response rating, Cupgrass, Woolly: 85

## Cc1cc(-n2c(-c3cccc(F)c3)ncc(C(=O)C3=C(O)CCCC3=O)c2=O)ccc1F [Compound 191]
[1]; [13]
  Plant response rating, Blackgrass: 30
[1]; [16]
  Plant response rating, Blackgrass: 45
[1]; [14]
  Plant response rating, Blackgrass: 50
[1]; [15]
  Plant response rating, Blackgrass: 60
[2]; [13]
  Plant response rating, Surinam Grass: 70
[2]; [16]
  Plant response rating, Surinam Grass: 85
[2]; [14]
  Plant response rating, Surinam Grass: 90
[2]; [15]
  Plant response rating, Surinam Grass: 98
[3]; [13]
  Plant response rating, Ryegrass, Italian: 40
[3]; [16]
  Plant response rating, Ryegrass, Italian: 40
[3]; [14]
  Plant response rating, Ryegrass, Italian: 50
[3]; [15]
  Plant response rating, Ryegrass, Italian: 50
[4]; [13]
  Plant response rating, Bermudagrass: 100
[4]; [16]
  Plant response rating, Bermudagrass: 100
[4]; [14]
  Plant response rating, Bermudagrass: 100
[4]; [15]
  Plant response rating, Bermudagrass: 100
[5]; [13]
  Plant response rating, Lambsquarters: 75
[5]; [16]
  Plant response rating, Lambsquarters: 80
[5]; [14]
  Plant response rating, Lambsquarters: 98
[5]; [15]
  Plant response rating, Lambsquarters: 100
[6]; [13]
  Plant response rating, Morningglory: 40
[6]; [16]
  Plant response rating, Morningglory: 65
[6]; [14]
  Plant response rating, Morningglory: 90
[6]; [15]
  Plant response rating, Morningglory: 100
[7]; [13]
  Plant response rating, Bromegrass, Downy: 35
[7]; [16]
  Plant response rating, Bromegrass, Downy: 40
[7]; [14]
  Plant response rating, Bromegrass, Downy: 50
[7]; [15]
  Plant response rating, Bromegrass, Downy: 75
Corn (Zea mays); [13]
  Plant response rating, Corn: 65
Corn (Zea mays); [16]
  Plant response rating, Corn: 75
Corn (Zea mays); [14]
  Plant response rating, Corn: 75
Corn (Zea mays); [15]
  Plant response rating, Corn: 85
[8]; [13]
  Plant response rating, Foxtail, Green: 40
[8]; [16]
  Plant response rating, Foxtail, Green: 55
[8]; [14]
  Plant response rating, Foxtail, Green: 80
[8]; [15]
  Plant response rating, Foxtail, Green: 98
[9]; [13]
  Plant response rating, Nutsedge, Yellow: 40
[9]; [16]
  Plant response rating, Nutsedge, Yellow: 40
[9]; [14]
  Plant response rating, Nutsedge, Yellow: 55
[9]; [15]
  Plant response rating, Nutsedge, Yellow: 70
[10]; [13]
  Plant response rating, Crabgrass, Large: 85
[10]; [16]
  Plant response rating, Crabgrass, Large: 100
[10]; [14]
  Plant response rating, Crabgrass, Large: 100
[10]; [15]
  Plant response rating, Crabgrass, Large: 100
[11]; [13]
  Plant response rating, Foxtail, Giant: 100
[11]; [16]
  Plant response rating, Foxtail, Giant: 100
[11]; [14]
  Plant response rating, Foxtail, Giant: 100
[11]; [15]
  Plant response rating, Foxtail, Giant: 100
[12]; [13]
  Plant response rating, Cupgrass, Woolly: 85
[12]; [16]
  Plant response rating, Cupgrass, Woolly: 90
[12]; [14]
  Plant response rating, Cupgrass, Woolly: 90
[12]; [15]
  Plant response rating, Cupgrass, Woolly: 98
